Test results: ChEMBL document CHEMBL4038295, “Calofolic acids A-F, chromanones from the bark of Calophyllum scriblitifolium with vasorelaxation activity” (Bioorg Med Chem Lett, 2017)

These compounds were tested on Thoracic aorta (assay: Vasorelaxing effect in endothelium-intact Wistar rat thoracic aorta ring assessed as inhibition of phenylephrine-stimulated contraction).
Format: functional, tissue-based

SMILES	IC50 [µM]	inhibition
CCCC[C@H](CC(=O)O)c1c2c(c(O)c3c1O[C@H](C)[C@H](C)C3=O)C=CC(C)(C)O2	12.1	Dose-dependent effect
CCC[C@H](CC(=O)O)c1c2c(c(O)c3c1O[C@H](C)[C@@H](C)C3=O)C=CC(C)(C)O2	13.8	Dose-dependent effect
CCC[C@H](CC(=O)O)c1c2c(c(O)c3c1O[C@H](C)[C@H](C)C3=O)C=CC(C)(C)O2	18.9	Dose-dependent effect

Compounds with a lower IC50, results first:

IC50 [µM]	SMILES	inhibition
10.4	CC[C@H](CC(=O)O)c1c2c(c(O)c3c1O[C@H](C)[C@@H](C)C3=O)C=CC(C)(C)O2	Dose-dependent effect
6.07	CC[C@H](CC(=O)O)c1c2c(c(O)c3c1O[C@H](C)[C@H](C)C3=O)C=CC(C)(C)O2	Dose-dependent effect
10.3	C[C@H](CC(=O)O)c1c2c(c(O)c3c1O[C@H](C)[C@H](C)C3=O)C=CC(C)(C)O2	Dose-dependent effect
